Laboratory results from ChEMBL document CHEMBL1201862, “PubChem BioAssay data set” (2004).
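Exposure lasted 48 hours, with cells grown in 96-well plates and compounds tested at five concentrations. Abbreviation: GI50, concentration required for 50% inhibition of growth.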 Calls of active or inactive are those of the source. No stated cut-off is given here; in the data, active = GI50 up to about 1.1 µM and inactive = higher.

Columns and labels:
Test in all cases: growth of human tumour cells (NCI), 48 h
[1] = test system: A549
[2] = test system: SF-268
[3] = test system: 786-0
[4] = test system: IGROV-1
[5] = test system: SK-MEL-5
[6] = test system: ACHN
[7] = test system: U-251
[8] = test system: A498
[9] = test system: RPMI-8226
[10] = test system: DU-145
[11] = test system: HCT-116
[12] = test system: SK-MEL-28
[13] = test system: SNB-75
[14] = test system: UO-31
[15] = test system: TK-10
[16] = test system: COLO 205
[17] = test system: SN12C
[18] = test system: HT-29
[19] = test system: OVCAR-5
[20] = test system: OVCAR-8
[21] = test system: HL-60
[22] = test system: Malme-3M
[23] = test system: Hs-578T
[24] = test system: CCRF-CEM
[25] = test system: HCC 2998
[26] = test system: MCF7
[27] = test system: NCI-H226
[28] = test system: K562
[29] = test system: SW-620
[30] = test system: NCI-H522
[31] = test system: T47D
[32] = test system: HOP-62
[33] = test system: NCI-H23
[34] = test system: CAKI-1
[35] = test system: M14
[36] = test system: HCT-15
[37] = test system: BT-549
[38] = test system: LOX IMVI
[39] = test system: MDA-MB-231
[40] = test system: RXF 393
[41] = test system: SK-MEL-2
[42] = test system: SF-295
[43] = test system: UACC-62
[44] = test system: KM12
[45] = test system: SF-539
[46] = test system: MDA-MB-435
[47] = test system: HOP-92
[48] = test system: MDA-N
[49] = test system: NCI/ADR-RES
[50] = test system: OVCAR-3
[51] = test system: MOLT-4
[52] = test system: SNB-19
[53] = test system: PC-3
[54] = test system: OVCAR-4
[55] = test system: UACC-257
[56] = test system: SR
[57] = test system: NCI-H460
[58] = test system: EKVX
[59] = test system: SK-OV-3

`CC(=O)OCC1OC(n2c3c(c(-c4ccc(Cl)cc4)c(C#N)c2=S)C(=O)CC(C)(C)C3)C(OC(C)=O)C(OC(C)=O)C1OC(C)=O` (stereo unspecified) was tested, and the GI50 [1] was 38 µM (inactive), the GI50 [2] was 12.1 µM (inactive) and the GI50 [3] was 12.8 µM (inactive). The GI50 [4] was 40.7 µM (inactive), the GI50 [5] was 11.7 µM (inactive) and the GI50 [6] was 28.5 µM (inactive). For the same molecule, the GI50 [7] was 19.1 µM (inactive), the GI50 [8] was 30.3 µM (inactive) and the GI50 [9] was 4.59 µM (inactive). For the same molecule, the GI50 [10] was 50.9 µM (inactive), the GI50 [11] was 19.1 µM (inactive) and the GI50 [12] was 23.6 µM (inactive). The GI50 [13] was 11.4 µM (inactive), the GI50 [14] was 39.2 µM (inactive) and the GI50 [15] was > 100 µM (inactive). For the same molecule, the GI50 [16] was 25 µM (inactive), the GI50 [17] was 16 µM (inactive) and the GI50 [18] was 15.7 µM (inactive). The GI50 [19] was 35.8 µM (inactive), the GI50 [20] was 9.55 µM (inactive) and the GI50 [21] was 5.33 µM (inactive). For the same molecule, the GI50 [22] was 43.3 µM (inactive), the GI50 [23] was 20.7 µM (inactive) and the GI50 [24] was 3.95 µM (inactive). The GI50 [25] was 4.68 µM (inactive), the GI50 [26] was 7.98 µM (inactive) and the GI50 [27] was 27.5 µM (inactive). For the same molecule, the GI50 [28] was 3.23 µM (inactive), the GI50 [29] was 7.06 µM (inactive) and the GI50 [30] was 4.94 µM (inactive). The GI50 [31] was 6.98 µM (inactive), the GI50 [32] was 42 µM (inactive) and the GI50 [33] was 28.8 µM (inactive). The GI50 [34] was 11.4 µM (inactive), the GI50 [35] was 27.5 µM (inactive) and the GI50 [36] was 14.2 µM. For the same molecule, the GI50 [37] was 3.14 µM (inactive), the GI50 [38] was 7.55 µM (inactive) and the GI50 [39] was 15.2 µM (inactive). For the same molecule, the GI50 [40] was 7.48 µM (inactive), the GI50 [41] was 23.4 µM (inactive) and the GI50 [42] was 32.6 µM (inactive). For the same molecule, the GI50 [43] was 7.62 µM (inactive), the GI50 [44] was 29.7 µM (inactive) and the GI50 [45] was 21.1 µM (inactive). The GI50 [46] was 12.7 µM (inactive), the GI50 [47] was 18.5 µM (inactive) and the GI50 [48] was 11.5 µM (inactive). The GI50 [49] was 12 µM (inactive), the GI50 [50] was 32.7 µM (inactive) and the GI50 [51] was 4.45 µM (inactive). The GI50 [52] was > 45.4 µM (inactive), the GI50 [53] was 10.9 µM (inactive) and the GI50 [54] was 17.8 µM (inactive). For the same molecule, the GI50 [55] was 15.2 µM (inactive), the GI50 [56] was 4.12 µM (inactive) and the GI50 [57] was 33.7 µM (inactive).

With `CN(C)c1ccc(C(=NNC(=O)c2cc3ccccc3[nH]2)c2ccc(N(C)C)cc2)cc1` the GI50 [1] was 0.637 µM (active), the GI50 [2] was 0.433 µM (active) and the GI50 [3] was 1.53 µM (inactive). The GI50 [58] was 1.85 µM (inactive), the GI50 [4] was 0.395 µM (active) and the GI50 [5] was 0.407 µM (active). The GI50 [6] was 1.1 µM (active), the GI50 [7] was 0.348 µM (active) and the GI50 [8] was 1.05 µM (active). For the same molecule, the GI50 [9] was 0.321 µM (active), the GI50 [10] was 1.39 µM (inactive) and the GI50 [11] was 0.422 µM (active). For the same molecule, the GI50 [13] was 0.632 µM (active), the GI50 [14] was 0.942 µM (active) and the GI50 [15] was 4.56 µM (inactive). For the same molecule, the GI50 [16] was 0.305 µM (active), the GI50 [17] was 1.35 µM (inactive) and the GI50 [18] was 0.195 µM (active). For the same molecule, the GI50 [19] was 0.94 µM (active), the GI50 [20] was 0.608 µM (active) and the GI50 [21] was 0.26 µM (active). The GI50 [23] was 0.359 µM (active), the GI50 [24] was 0.326 µM (active) and the GI50 [25] was 0.193 µM (active). The GI50 [59] was 1.62 µM (inactive), the GI50 [26] was 0.245 µM (active) and the GI50 [27] was 35.8 µM (inactive). The GI50 [28] was 0.0792 µM (active), the GI50 [29] was 0.299 µM (active) and the GI50 [30] was 0.275 µM (active). The GI50 [31] was > 23.8 µM (inactive), the GI50 [32] was 1.77 µM (inactive) and the GI50 [33] was 0.912 µM (active). The GI50 [34] was 0.971 µM (active), the GI50 [35] was 0.185 µM (active) and the GI50 [36] was 0.156 µM. For the same molecule, the GI50 [37] was 3.69 µM (inactive), the GI50 [38] was 0.811 µM (active) and the GI50 [39] was 0.457 µM (active). The GI50 [40] was 1.15 µM (inactive), the GI50 [41] was 0.171 µM (active) and the GI50 [42] was 0.303 µM (active). For the same molecule, the GI50 [43] was 0.409 µM (active), the GI50 [44] was 0.33 µM (active) and the GI50 [45] was 0.573 µM (active). For the same molecule, the GI50 [46] was 0.024 µM (active), the GI50 [47] was 3.22 µM (inactive) and the GI50 [48] was 0.0388 µM (active). For the same molecule, the GI50 [49] was 0.177 µM (active), the GI50 [50] was 0.276 µM (active) and the GI50 [51] was 0.293 µM (active). For the same molecule, the GI50 [52] was 0.625 µM (active), the GI50 [53] was 0.598 µM (active) and the GI50 [54] was 2.73 µM (inactive). The GI50 [55] was 4.04 µM (inactive), the GI50 [56] was < 0.033 µM (active) and the GI50 [57] was 0.348 µM (active).

With `COc1cc2c(cc1C)NC(=O)/C2=C/c1c(Cl)[nH]c2ccccc12` the GI50 [1] was 6.05 µM (inactive), the GI50 [2] was 4.22 µM (inactive) and the GI50 [3] was 6.21 µM (inactive). The GI50 [58] was 6.68 µM (inactive), the GI50 [4] was 3.3 µM (inactive) and the GI50 [5] was 3.15 µM (inactive). For the same molecule, the GI50 [6] was 10.6 µM (inactive), the GI50 [7] was 4.69 µM (inactive) and the GI50 [8] was 4.57 µM (inactive). For the same molecule, the GI50 [9] was 4.6 µM (inactive), the GI50 [10] was 13.3 µM (inactive) and the GI50 [11] was 4.89 µM (inactive). For the same molecule, the GI50 [12] was 7 µM (inactive), the GI50 [13] was 7.87 µM (inactive) and the GI50 [14] was 10.3 µM (inactive). The GI50 [15] was 10.4 µM (inactive), the GI50 [16] was 2.92 µM (inactive) and the GI50 [17] was 5.3 µM (inactive). The GI50 [18] was 3.94 µM (inactive), the GI50 [19] was 7.87 µM (inactive) and the GI50 [20] was 11.8 µM (inactive). For the same molecule, the GI50 [21] was 2.39 µM (inactive), the GI50 [22] was 3.88 µM (inactive) and the GI50 [23] was 3.26 µM (inactive). The GI50 [24] was 3.56 µM (inactive), the GI50 [25] was 3.89 µM (inactive) and the GI50 [59] was 1.47 µM (inactive). The GI50 [26] was 3.8 µM (inactive), the GI50 [28] was 3.83 µM (inactive) and the GI50 [29] was 4.56 µM (inactive). For the same molecule, the GI50 [30] was 6.75 µM (inactive), the GI50 [31] was 5.61 µM (inactive) and the GI50 [32] was 3.28 µM (inactive). For the same molecule, the GI50 [33] was 10.1 µM (inactive), the GI50 [34] was 7.71 µM (inactive) and the GI50 [35] was 3.21 µM (inactive). For the same molecule, the GI50 [36] was 3.38 µM, the GI50 [37] was 2.74 µM (inactive) and the GI50 [38] was 4.48 µM (inactive). For the same molecule, the GI50 [39] was 3.95 µM (inactive), the GI50 [40] was 8.07 µM (inactive) and the GI50 [41] was 2.8 µM (inactive). For the same molecule, the GI50 [42] was 1.77 µM (inactive), the GI50 [43] was 3.57 µM (inactive) and the GI50 [44] was 3.1 µM (inactive). The GI50 [45] was 1.3 µM (inactive), the GI50 [46] was 1.62 µM (inactive) and the GI50 [47] was 11.2 µM (inactive). The GI50 [48] was 1.63 µM (inactive), the GI50 [49] was 2.62 µM (inactive) and the GI50 [50] was 2.26 µM (inactive). For the same molecule, the GI50 [51] was 4.05 µM (inactive), the GI50 [52] was 4.5 µM (inactive) and the GI50 [53] was 5.21 µM (inactive). The GI50 [55] was 10.7 µM (inactive), the GI50 [56] was 3.55 µM (inactive) and the GI50 [57] was 3.92 µM (inactive).
